Patent US20250152585A1, “PHARMACEUTICAL COMPOUND” (Duke Street Bio Limited, priority 2022, published 2025)
Where two headings read alike, the source gives them in different places.

Experiments:
[1] = molecular target: T1, N-terminally FLAG-tagged PARP2 (amino acids 1-583) (Homo sapiens, UniProt Q9UGN5); test: PARP2 probe displacement HTRF assay; type: binding; conditions: binned Kd
T1 construct: N-terminally FLAG-tagged PARP2 (amino acids 1-583)
Description: Data analysis was performed identical as for PARP1.

[2] = molecular target: T2, full length N-terminally FLAG-tagged PARP1 (Homo sapiens, UniProt P09874); test: PARP1 probe displacement HTRF assay; conditions: for Selectivity: PARP1 over PARP2, ratio Kd (PARP2)/Kd (PARP1); for Kd: binned Kd
T2 sequence (P09874 whole entry): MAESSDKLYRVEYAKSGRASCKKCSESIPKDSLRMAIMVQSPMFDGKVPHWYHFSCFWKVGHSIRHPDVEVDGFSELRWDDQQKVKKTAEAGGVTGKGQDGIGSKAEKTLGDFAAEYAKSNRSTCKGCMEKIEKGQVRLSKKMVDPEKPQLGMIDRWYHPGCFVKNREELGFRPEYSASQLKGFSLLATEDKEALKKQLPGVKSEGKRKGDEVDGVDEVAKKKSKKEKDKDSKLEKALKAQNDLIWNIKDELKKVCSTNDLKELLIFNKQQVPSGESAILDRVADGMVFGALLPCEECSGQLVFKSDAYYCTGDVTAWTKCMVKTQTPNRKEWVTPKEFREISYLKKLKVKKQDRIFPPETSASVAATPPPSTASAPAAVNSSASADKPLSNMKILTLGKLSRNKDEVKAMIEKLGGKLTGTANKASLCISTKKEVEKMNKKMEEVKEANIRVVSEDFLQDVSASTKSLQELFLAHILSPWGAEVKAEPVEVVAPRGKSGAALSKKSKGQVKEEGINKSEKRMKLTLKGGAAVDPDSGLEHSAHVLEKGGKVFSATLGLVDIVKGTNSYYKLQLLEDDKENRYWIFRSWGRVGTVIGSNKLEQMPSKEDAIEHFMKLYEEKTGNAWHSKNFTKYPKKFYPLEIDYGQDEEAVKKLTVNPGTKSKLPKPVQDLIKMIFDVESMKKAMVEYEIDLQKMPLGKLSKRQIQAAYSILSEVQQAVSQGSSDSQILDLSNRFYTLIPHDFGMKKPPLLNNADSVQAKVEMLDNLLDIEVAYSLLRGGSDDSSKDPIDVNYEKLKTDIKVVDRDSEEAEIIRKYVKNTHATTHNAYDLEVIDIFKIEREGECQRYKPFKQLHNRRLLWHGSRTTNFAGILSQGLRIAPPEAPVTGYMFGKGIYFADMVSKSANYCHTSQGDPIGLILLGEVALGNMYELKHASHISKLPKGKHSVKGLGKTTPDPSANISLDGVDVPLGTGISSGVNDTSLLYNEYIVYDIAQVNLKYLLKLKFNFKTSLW

[3] = molecular target: T2, full length N-terminally FLAG-tagged PARP1; test: PARP1 biochemical DELFIA assay (auto-PARylation); set-up: recombinant full length human N-terminally FLAG-tagged PARP1
[4] = read-out: PARP1 HTRF, PARP1 probe displacement HTRF
[5] = binned IC50, PARP1 biochemical DELFIA assay
[6] = read-out: PARP1 HTRF, probe displacement HTRF
[7] = binned IC50, biochemical auto-PARylation assay

T1 sequence (Q9UGN5 whole entry, the tested form may be a part): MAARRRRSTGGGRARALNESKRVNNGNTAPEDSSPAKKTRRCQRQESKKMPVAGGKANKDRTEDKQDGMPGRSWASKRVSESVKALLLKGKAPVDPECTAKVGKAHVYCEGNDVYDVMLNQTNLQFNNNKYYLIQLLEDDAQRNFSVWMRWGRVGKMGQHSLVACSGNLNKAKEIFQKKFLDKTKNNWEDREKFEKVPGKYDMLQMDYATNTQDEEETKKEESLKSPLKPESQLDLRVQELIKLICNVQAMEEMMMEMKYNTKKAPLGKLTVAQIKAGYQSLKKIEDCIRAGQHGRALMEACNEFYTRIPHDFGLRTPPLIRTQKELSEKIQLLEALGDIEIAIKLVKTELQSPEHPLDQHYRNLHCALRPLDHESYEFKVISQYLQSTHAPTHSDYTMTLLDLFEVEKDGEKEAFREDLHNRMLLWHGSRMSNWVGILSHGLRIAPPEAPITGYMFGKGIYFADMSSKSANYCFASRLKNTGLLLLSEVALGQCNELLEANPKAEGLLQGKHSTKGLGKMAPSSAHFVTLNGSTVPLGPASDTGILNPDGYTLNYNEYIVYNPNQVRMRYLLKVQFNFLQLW

Row | Structure (SMILES) | Kd ([1]; PARP2 probe displacement HTRF) [nM] | Selectivity ([2]; probe displacement HTRF) | Kd [2, 4] [nM] | IC50 [3, 5] [nM] | Kd ([1]; probe displacement HTRF) [nM] | Kd [2, 6] [nM] | IC50 [3, 7] [nM] | Kd ([2]; PARP1 HTRF, PARP1 probe displacement HTRF) [nM] | Kd ([2]; PARP1 HTRF, probe displacement HTRF) [nM]
1 | CNC(=O)c1ccc(N2CCC(N3CCC(c4nc5onc(C(F)(F)F)c5c(=O)[nH]4)C3)CC2)cn1 (single isomer, unassigned) [Compound 176a] | > 10000 | + (+ indicates a value of 10 to less than 50) | 100 to 1000 | 100 to 1000 | – | – | – | – | –
2 | CNC(=O)c1ccc(N2CCC(N3CCC(c4cc5c(F)ccc(F)c5c(=O)[nH]4)C3)CC2)c(F)n1 (racemic) [Compound 268rac] | – | +++ (+++ indicate a value of at least 100) | – | – | 100 to 1000 | < 10 | < 10 | – | –
3 | O=C(NCC(F)F)c1ccc(N2CCC(N3CCC(c4cc5ccc(F)cc5c(=O)[nH]4)C3)CC2)c(F)n1 (single isomer, unassigned) [Compound 399b] | – | + (+ indicates a value of 10 to less than 50) | – | – | 10 to 100 | < 10 | < 10 | – | –
4 | CCc1ccc(C2CCN(C3CCN(c4ccc(C(=O)NC)c(F)c4)CC3)C2)[nH]c1=O (racemic) [Compound 282rac] | – | + (+ indicates a value of 10 to less than 50) | – | – | 100 to 1000 | 10 to 100 | 10 to 100 | – | –
5 | N#Cc1ccc(N2CCC(N3CCC(c4nc5ccccc5c(=O)[nH]4)C3)CC2)nc1 (single isomer, unassigned) [Compound 55a] | 1000 to 10000 | +++ (+++ indicate a value of at least 100) | < 10 | < 10 | – | – | – | – | –
6 | CNC(=O)c1ccc(N2CCC(N3CCC(c4cc5c(F)cccc5c(=O)[nH]4)C3)CC2)cn1 (single isomer, unassigned) [Compound 172a] | 1000 to 10000 | +++ (+++ indicate a value of at least 100) | < 10 | < 10 | – | – | – | – | –
7 | CNC(=O)c1ccc(N2CC(N3CCCC(c4nc5ccccc5c(=O)[nH]4)C3)C2)cn1 (single isomer, unassigned) [Compound 23b] | > 10000 | − (− indicates a value of less than 10) | 1000 to 10000 | 1000 to 10000 | – | – | – | – | –
8 | CNC(=O)c1ncc(N2CCC(N3CCC(c4cc5cccc(F)c5c(=O)[nH]4)C3)CC2)cn1 (racemic) [Compound 234rac] | – | +++ (+++ indicate a value of at least 100) | – | – | 100 to 1000 | < 10 | < 10 | – | –
9 | CNC(=O)c1ccc(N2CCC(N3CCC(c4cc5ncc(F)cc5c(=O)[nH]4)C3)CC2)cn1 (single isomer, unassigned) [Compound 315a] | – | +++ (+++ indicate a value of at least 100) | – | – | 100 to 1000 | < 10 | < 10 | – | –
10 | CNC(=O)c1ccc(N2CCC(N3CCC(c4cc5c(c(=O)[nH]4)CCCC5)C3)CC2)cn1 (racemic) [Compound 336rac] | – | ++ (++ indicates a value of 50 to less than 100) | – | – | 10 to 100 | < 10 | < 10 | – | –
11 | CNC(=O)c1ccc(N2CCC(N3CCCC(c4nc5sc(C)c(C)c5c(=O)[nH]4)C3)CC2)cn1 (single isomer, unassigned) [Compound 199b] | > 10000 | + (+ indicates a value of 10 to less than 50) | 100 to 1000 | 100 to 1000 | – | – | – | – | –
12 | CS(=O)(=O)Nc1ccc(N2CCC(N3CCC(c4nc5ccccc5c(=O)[nH]4)C3)CC2)cc1 (single isomer, unassigned) [Compound 250b] | – | + (+ indicates a value of 10 to less than 50) | – | – | 100 to 1000 | 10 to 100 | 10 to 100 | – | –
13 | CNC(=O)c1ccc(N2CCC(N3CCCC(F)(c4nc5ccccc5c(=O)[nH]4)C3)CC2)cn1 (single isomer, unassigned) [Compound 71b] | > 10000 | +++ (+++ indicate a value of at least 100) | 10 to 100 | 10 to 100 | – | – | – | – | –
14 | CCc1ccc(C2CCN(C3CCN(c4cnc(C(=O)NC)nc4Cl)CC3)C2)[nH]c1=O (racemic) [Compound 242rac] | – | ++ (++ indicates a value of 50 to less than 100) | – | – | 100 to 1000 | < 10 | < 10 | – | –
15 | O=c1[nH]c(C2CCN(C3CCN(c4ccc(Cl)cc4)CC3)C2)nc2ccccc12 (single isomer, unassigned) [Compound 43b] | 100 to 1000 | + (+ indicates a value of 10 to less than 50) | < 10 | < 10 | – | – | – | – | –
16 | CNC(=O)c1ccc(N2CCC(N3CCC(c4cc5[nH]nc(C(F)(F)F)c5c(=O)[nH]4)C3)CC2)cn1 (single isomer, unassigned) [Compound 194a, N-methyl-5-(4-(3-(4-oxo-3-(trifluoromethyl)-4,5-dihydro-1H-pyrazolo[4,3-c]pyridin-6-yl)pyrrolidin-1-yl)piperidin-1-yl)picolinamide] | 1000 to 10000 | + (+ indicates a value of 10 to less than 50) | – | 10 to 100 | – | – | – | 10 to 100 | –
17 | CNC(=O)c1ccc(N2CCC(N3CCC(c4cc5ccc(F)cc5c(=O)[nH]4)C3)CC2)c(C#N)n1 (single isomer, unassigned) [Compound 396a] | – | +++ (+++ indicate a value of at least 100) | – | – | 100 to 1000 | < 10 | < 10 | – | –
18 | CNC(=O)c1ccc(N2CCC(N3CCC(c4nc5c(c(=O)[nH]4)CCCC5)C3)CC2)cn1 (single isomer, unassigned) [Compound 155b] | 100 to 1000 | +++ (+++ indicate a value of at least 100) | < 10 | < 10 | – | – | – | – | –
19 | CCc1cnc(C2CCCN(C3CCN(c4ccc(C(=O)NC)nc4)CC3)C2)[nH]c1=O (single isomer, unassigned) [Compound 31b] | > 10000 | +++ (+++ indicate a value of at least 100) | 10 to 100 | 10 to 100 | – | – | – | – | –
20 | CCc1cnc(C2CCN(C3CCC(F)(F)CC3)C2)[nH]c1=O (single isomer, unassigned) [Compound 38b] | > 10000 | − (− indicates a value of less than 10) | 1000 to 10000 | 1000 to 10000 | – | – | – | – | –
21 | CNC(=O)c1ccc(N2CCC(N3CCOC(c4nc5ccccc5c(=O)[nH]4)C3)CC2)cn1 (single isomer, unassigned) [Compound 58a] | > 10000 | +++ (+++ indicate a value of at least 100) | < 10 | < 10 | – | – | – | – | –
22 | CCc1ccc(C2CCN(C3CCN(c4ccc(C(=O)NC)nc4C)CC3)C2)[nH]c1=O (single isomer, unassigned) [Compound 133b] | > 10000 | +++ (+++ indicate a value of at least 100) | 10 to 100 | 10 to 100 | – | – | – | – | –
23 | CNC(=O)c1ccc(F)c(N2CCC(N3CCCC(c4nc5ccccc5c(=O)[nH]4)C3)CC2)n1 (racemic) [Compound 95rac] | 1000 to 10000 | − (− indicates a value of less than 10) | 1000 to 10000 | 100 to 1000 | – | – | – | – | –
24 | CCCc1ccc(C2CCN(C3CCN(c4ccc(C(=O)NC)nc4)CC3)C2)[nH]c1=O (single isomer, unassigned) [Compound 261a] | – | − (− indicates a value of less than 10) | – | – | > 10000 | 1000 to 10000 | 100 to 1000 | – | –
25 | CNC(=O)c1ccc(N2CCC(N3CCC(c4cnc(CC(F)(F)F)c(=O)[nH]4)C3)CC2)cn1 (single isomer, unassigned) [Compound 287b] | – | − (− indicates a value of less than 10) | – | – | > 10000 | 1000 to 10000 | 1000 to 10000 | – | –
26 | CNC(=O)c1ccc(N2CCC(N3CCC(c4cc5c(c(=O)[nH]4)CCC(=O)N5)C3)CC2)cn1 (single isomer, unassigned) [Compound 309a, 5-(4-(3-(2,5-dioxo-1,2,3,4,5,6-hexahydro-1,6-naphthyridin-7-yl)pyrrolidin-1-yl)piperidin-1-yl)-N-methylpicolinamide] | – | +++ (+++ indicate a value of at least 100) | – | – | > 10000 | – | < 10 | – | < 10
27 | CNC(=O)c1ccc(N2CC(N3CCCC(Cc4nc5ccccc5c(=O)[nH]4)C3)C2)cn1 (single isomer, unassigned) [Compound 51a] | > 10000 | + (+ indicates a value of 10 to less than 50) | 100 to 1000 | 100 to 1000 | – | – | – | – | –
